Assay results as given in patent US20250290117A1, “MOLECULAR PHENOTYPIC ANTIMICROBIAL SUSCEPTIBILITY TESTING” (priority 2024, published 2025).

Assays:
Assay type in all cases: cell-based
[1] = test system: pathogens of clinical samples; experiment: Molecular phenotypic antimicrobial susceptibility test of clinical samples, direct PCR without a separate DNA purification step (Table 6)
Method in brief: (§1)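 Semi-quantitative PCR measures growth after exposure, so sensitivity means prevented growth and resistance means allowed growth. Exposure lasts 12-16 hours at single or multiple breakpoint concentrations in Mueller Hinton Broth, with the inoculum at 0.5 McFarland.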

[2] = test system: pathogens of clinical samples; experiment: Molecular phenotypic antimicrobial susceptibility test of clinical samples, extraction DNA purification step prior to PCR (Table 6)
Method in brief: as §1

[3] = test system: Escherichia coli; experiment: Traditional culture-based antimicrobial susceptibility test
Method in brief: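 E. coli isolates underwent conventional growth, isolation and exposure to antimicrobials, giving a culture-based susceptibility call for each agent.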

[4] = test system: Escherichia coli; experiment: Molecular phenotypic antimicrobial susceptibility test (extraction or DNA purification prior to PCR)
Method in brief: as §1

[5] = E. coli, clinical sample of r10-r24
[6] = E. coli, clinical sample of r158-r172
[7] = K. aerogenes, clinical sample of r136-r150
[8] = K. pneumoniae, clinical sample of r121-r135
[9] = M. morganii, clinical sample of r55-r69
[10] = M. morganii, clinical sample of r70-r84
[11] = P. mirabilis, clinical sample of r25-r39
[12] = P. mirabilis, clinical sample of r40-r54
[13] = E. coli isolate 4, Ct at control (average) 17.5733
[14] = E. coli isolate 4, at sensitive breakpoint
[15] = E. coli isolate 5, Ct at control (average) 21.0933
[16] = E. coli isolate 5, at sensitive breakpoint

## CO/N=C(\C(=O)N[C@@H]1C(=O)N2C(C(=O)[O-])=C(C[N+]3(C)CCCC3)CS[C@H]12)c1csc(N)n1 [Cefepime]
[1]; [5]
  Molecular Antibiotic Susceptibility Result: Sensitive (Antimicrobial wells with pathogen load detected below the control wells (typically >2 cycle thresholds later) may be reported as Sensitive)
[1]; [6]
  Molecular Antibiotic Susceptibility Result: Sensitive (Antimicrobial wells with pathogen load detected below the control wells (typically >2 cycle thresholds later) may be reported as Sensitive)
[1]; [7]
  Molecular Antibiotic Susceptibility Result: Sensitive (Antimicrobial wells with pathogen load detected below the control wells (typically >2 cycle thresholds later) may be reported as Sensitive)
[1]; [8]
  Molecular Antibiotic Susceptibility Result: Sensitive (Antimicrobial wells with pathogen load detected below the control wells (typically >2 cycle thresholds later) may be reported as Sensitive)
[1]; [9]
  Molecular Antibiotic Susceptibility Result: Sensitive (Antimicrobial wells with pathogen load detected below the control wells (typically >2 cycle thresholds later) may be reported as Sensitive)
[1]; [10]
  Molecular Antibiotic Susceptibility Result: Sensitive (Antimicrobial wells with pathogen load detected below the control wells (typically >2 cycle thresholds later) may be reported as Sensitive)
[1]; [11]
  Molecular Antibiotic Susceptibility Result: Sensitive (Antimicrobial wells with pathogen load detected below the control wells (typically >2 cycle thresholds later) may be reported as Sensitive)
[1]; [12]
  Molecular Antibiotic Susceptibility Result: Sensitive (Antimicrobial wells with pathogen load detected below the control wells (typically >2 cycle thresholds later) may be reported as Sensitive)
[2]; [5]
  Molecular Antibiotic Susceptibility Result: Sensitive (Antimicrobial wells with pathogen load detected below the control wells (typically >2 cycle thresholds later) may be reported as Sensitive)
[2]; [6]
  Molecular Antibiotic Susceptibility Result: Sensitive (Antimicrobial wells with pathogen load detected below the control wells (typically >2 cycle thresholds later) may be reported as Sensitive)
[2]; [7]
  Molecular Antibiotic Susceptibility Result: Sensitive (Antimicrobial wells with pathogen load detected below the control wells (typically >2 cycle thresholds later) may be reported as Sensitive)
[2]; [8]
  Molecular Antibiotic Susceptibility Result: Sensitive (Antimicrobial wells with pathogen load detected below the control wells (typically >2 cycle thresholds later) may be reported as Sensitive)
[2]; [9]
  Molecular Antibiotic Susceptibility Result: Sensitive (Antimicrobial wells with pathogen load detected below the control wells (typically >2 cycle thresholds later) may be reported as Sensitive)
[2]; [10]
  Molecular Antibiotic Susceptibility Result: Sensitive (Antimicrobial wells with pathogen load detected below the control wells (typically >2 cycle thresholds later) may be reported as Sensitive)
[2]; [11]
  Molecular Antibiotic Susceptibility Result: Sensitive (Antimicrobial wells with pathogen load detected below the control wells (typically >2 cycle thresholds later) may be reported as Sensitive)
[2]; [12]
  Molecular Antibiotic Susceptibility Result: Sensitive (Antimicrobial wells with pathogen load detected below the control wells (typically >2 cycle thresholds later) may be reported as Sensitive)
[3]; E. coli isolate 4 (Table 3)
  Traditional Culture Result: Resistant
[3]; E. coli isolate 5 (Table 3)
  Traditional Culture Result: Sensitive
[3]; E. coli isolate JJ1887
  Traditional Culture Result: Resistant
[4]; [13]
  Ct at Sensitive Breakpoint: 17.09
[4]; [14]
  Molecular Antimicrobial Susceptibility Result: Resistant
[4]; [15]
  Ct at Sensitive Breakpoint: 26.77
[4]; [16]
  Molecular Antimicrobial Susceptibility Result: Sensitive (Antimicrobial wells with pathogen load detected below the control wells (typically >2 cycle thresholds later) may be reported as Sensitive)

## CO/N=C(\C(=O)N[C@@H]1C(=O)N2C(C(=O)O)=C(CSc3nc(=O)c(=O)[nH]n3C)CS[C@H]12)c1csc(N)n1 [Ceftriaxone]
[1]; [5]
  Molecular Antibiotic Susceptibility Result: Sensitive (Antimicrobial wells with pathogen load detected below the control wells (typically >2 cycle thresholds later) may be reported as Sensitive)
[1]; E. coli, clinical sample of r10-r24, Ct control avg 12.97
  Ct: 24.791
[1]; [6]
  Molecular Antibiotic Susceptibility Result: Sensitive (Antimicrobial wells with pathogen load detected below the control wells (typically >2 cycle thresholds later) may be reported as Sensitive)
[1]; E. coli, clinical sample of r158-r172, Ct control avg 12.894
  Ct: 30.396
[1]; [7]
  Molecular Antibiotic Susceptibility Result: Sensitive (Antimicrobial wells with pathogen load detected below the control wells (typically >2 cycle thresholds later) may be reported as Sensitive)
[1]; K. aerogenes, clinical sample of r136-r150, Ct control avg 13.854
  Ct: 29.137
[1]; [8]
  Molecular Antibiotic Susceptibility Result: Sensitive (Antimicrobial wells with pathogen load detected below the control wells (typically >2 cycle thresholds later) may be reported as Sensitive)
[1]; K. pneumoniae, clinical sample of r121-r135, Ct control avg […]
  Ct: 28.004
[1]; [9]
  Molecular Antibiotic Susceptibility Result: Sensitive (Antimicrobial wells with pathogen load detected below the control wells (typically >2 cycle thresholds later) may be reported as Sensitive)
[1]; M. morganii, clinical sample of r55-r69, Ct control avg 12.09
  Ct: 29.28
[1]; [10]
  Molecular Antibiotic Susceptibility Result: Sensitive (Antimicrobial wells with pathogen load detected below the control wells (typically >2 cycle thresholds later) may be reported as Sensitive)
[1]; M. morganii, clinical sample of r70-r84, Ct control avg 11.677
  Ct: 28.625
[1]; [11]
  Molecular Antibiotic Susceptibility Result: Sensitive (Antimicrobial wells with pathogen load detected below the control wells (typically >2 cycle thresholds later) may be reported as Sensitive)
[1]; P. mirabilis, clinical sample of r25-r39, Ct control avg 11.801
  Ct: 22.976
[1]; [12]
  Molecular Antibiotic Susceptibility Result: Sensitive (Antimicrobial wells with pathogen load detected below the control wells (typically >2 cycle thresholds later) may be reported as Sensitive)
[1]; P. mirabilis, clinical sample of r40-r54, Ct control avg 10.06
  Ct: 28.394
[2]; [5]
  Molecular Antibiotic Susceptibility Result: Sensitive (Antimicrobial wells with pathogen load detected below the control wells (typically >2 cycle thresholds later) may be reported as Sensitive)
[2]; E. coli, clinical sample of r10-r24, Ct Control Avg 18.112
  Ct: 26.029
[2]; [6]
  Molecular Antibiotic Susceptibility Result: Sensitive (Antimicrobial wells with pathogen load detected below the control wells (typically >2 cycle thresholds later) may be reported as Sensitive)
[2]; E. coli, clinical sample of r158-r172, Ct Control Avg 20.146
  Ct: 29.851
[2]; [7]
  Molecular Antibiotic Susceptibility Result: Sensitive (Antimicrobial wells with pathogen load detected below the control wells (typically >2 cycle thresholds later) may be reported as Sensitive)
[2]; K. aerogenes, clinical sample of r136-r150, Ct Control Avg 19.994
  Ct: 33.124
[2]; [8]
  Molecular Antibiotic Susceptibility Result: Sensitive (Antimicrobial wells with pathogen load detected below the control wells (typically >2 cycle thresholds later) may be reported as Sensitive)
[2]; K. pneumoniae, clinical sample of r121-r135, Ct Control Avg 24.272
  Ct: 33.145
[2]; [9]
  Molecular Antibiotic Susceptibility Result: Sensitive (Antimicrobial wells with pathogen load detected below the control wells (typically >2 cycle thresholds later) may be reported as Sensitive)
[2]; M. morganii, clinical sample of r55-r69, Ct Control Avg 28.86
  Ct: 35.749
[2]; [10]
  Molecular Antibiotic Susceptibility Result: Sensitive (Antimicrobial wells with pathogen load detected below the control wells (typically >2 cycle thresholds later) may be reported as Sensitive)
[2]; M. morganii, clinical sample of r70-r84, Ct Control Avg 27.053
  Ct: 36.141
[2]; [11]
  Molecular Antibiotic Susceptibility Result: Sensitive (Antimicrobial wells with pathogen load detected below the control wells (typically >2 cycle thresholds later) may be reported as Sensitive)
[2]; P. mirabilis, clinical sample of r25-r39, Ct Control Avg 26.064
  Ct: 29.277
[2]; [12]
  Molecular Antibiotic Susceptibility Result: Sensitive (Antimicrobial wells with pathogen load detected below the control wells (typically >2 cycle thresholds later) may be reported as Sensitive)
[2]; P. mirabilis, clinical sample of r40-r54, Ct Control Avg 26.987
  Ct: 32.789
[3]; E. coli #1 - WDCM 00090 - 6.2×E3
  Traditional Culture Results: Sensitive
[3]; E. coli #2 - WDCM 00090 - 6.2×E3
  Traditional Culture Results: Sensitive
[3]; E. coli isolate 1 (Table 3)
  Traditional Culture Result: Resistant
[3]; E. coli isolate 2 (Table 3)
  Traditional Culture Result: Resistant
[3]; E. coli isolate 3 (Table 3)
  Traditional Culture Result: Resistant
[3]; E. coli isolate 4 (Table 3)
  Traditional Culture Result: Resistant
[3]; E. coli isolate 5 (Table 3)
  Traditional Culture Result: Sensitive
[3]; E. coli isolate JJ1887
  Traditional Culture Result: Resistant
[4]; E. coli isolate 1, Ct at control (average) 21.238
  Ct at Sensitive Breakpoint: 19.368
[4]; E. coli isolate 1, at sensitive breakpoint
  Molecular Antimicrobial Susceptibility Result: Resistant
[4]; E. coli isolate 2, Ct at control (average) 21.270
  Ct at Sensitive Breakpoint: 20.665
[4]; E. coli isolate 2, at sensitive breakpoint
  Molecular Antimicrobial Susceptibility Result: Resistant
[4]; E. coli isolate 3, Ct at control (average) 22.0995
  Ct at Sensitive Breakpoint: 18.979
[4]; E. coli isolate 3, at sensitive breakpoint
  Molecular Antimicrobial Susceptibility Result: Resistant
[4]; [13]
  Ct at Sensitive Breakpoint: 17.74
[4]; [14]
  Molecular Antimicrobial Susceptibility Result: Resistant
[4]; [15]
  Ct at Sensitive Breakpoint: 25.48
[4]; [16]
  Molecular Antimicrobial Susceptibility Result: Sensitive (Antimicrobial wells with pathogen load detected below the control wells (typically >2 cycle thresholds later) may be reported as Sensitive)
